Assay results taken from patent US5817840A, “Water soluble taxol derivatives” (The Scripps Research Institute, priority 1997, dated 1998).
Where two headings read alike, the source gives them in different places.

Key:
[1] = system: S1HA (human squamous carcinoma crvx); assay: Cytotoxicity, Example 8; assay type: cell-based
Description: (§1) Tumor or normal cells were cultured in 96-well plates with the test compound in 200 μl of RPMI supplemented with 10% fetal bovine serum (Hyclone, Salt Lake City, Utah) at 37° C. in a humidified atmosphere containing 5% CO2 in air for 72 hours. Sulforhodamine B dissolved in 1% acetic acid was added, and the plates were incubated for 30 minutes at ambient temperature, washed with 1% acetic acid, and blotted. To the air-dried plates were added 100 μl of […] unbuffered TRIS base (pH 10.5) with shaking. The optical densities of the plates were measured with a microplate reader (Molecular Devices Thermomax) at 540 nm. The concentration of compound required to reduce the absorbance to 50% of control samples was recorded as IC50.
(§2) NHDF: Normal human dermal fibroblast (available from Clouelics Corp., San Diego, Calif.); HLF-1: Normal human diploid lung; W1-38; Normal human diploid lung; CHO; Chinese hamster ovary; SK-MEL-28: Melanoma; CAPAN-1: Pancreatic carcinoma; H322: lung carcinoma; MCF-7; Breast carcinoma; BT-549; Human breast ductal carcinoma; OVCAR-3: Human ovarian carcinoma; HT-29: Human adenocarcinoma, colon; SIHA: Human squamous carcinoma crvx; 786-0: Human perirenal cell adenocarci; PC-3: Human prostate adenocarcinoma; HL-60: Human promyelomic leukemia; MOLT-4: Human T-cell leukemia. All cell lines except NHDF are available from the American Tissue Culture Collection, Rockville, Md.

[2] = system: NHDF (normal human dermal fibroblast); assay: Cytotoxicity, Example 8; assay type: cell-based
Description: as §1, §2

[3] = system: HT-29 (human adenocarcinoma, colon); assay: Cytotoxicity, Example 8; assay type: cell-based
Description: as §1, §2

[4] = system: BT-549 (human breast ductal carcinoma); assay: Cytotoxicity, Example 8; assay type: cell-based
Description: as §1, §2

SK-MEL-28 (melanoma) = assay: Cytotoxicity, Example 8; assay type: cell-based; settings: Homo sapiens
Description: as §1, §2

[5] = system: HLF-1 (normal human diploid lung); assay: Cytotoxicity, Example 8; assay type: cell-based
Description: as §1, §2

[6] = system: CAPAN-1 (pancreatic carcinoma); assay: Cytotoxicity, Example 8; assay type: cell-based; settings: Homo sapiens
Description: as §1, §2

[7] = system: OVCAR-3 (human ovarian carcinoma); assay: Cytotoxicity, Example 8; assay type: cell-based
Description: as §1, §2

H322 (lung carcinoma) [8] = assay: Cytotoxicity, Example 8; assay type: cell-based
Description: as §1, §2

MCF-7 (breast carcinoma) [9] = assay: Cytotoxicity, Example 8; assay type: cell-based; settings: Homo sapiens
Description: as §1, §2

[10] = system: PC-3 (human prostate adenocarcinoma); assay: Cytotoxicity, Example 8; assay type: cell-based
Description: as §1, §2

[11] = system: CHO (Chinese hamster ovary); assay: Cytotoxicity, Example 8; assay type: cell-based; settings: Cricetulus griseus
Description: as §1, §2

[12] = system: 786-0 (human perirenal cell adenocarci); assay: Cytotoxicity, Example 8; assay type: cell-based
Description: as §1, §2

[13] = system: W1-38 (normal human diploid lung); assay: Cytotoxicity, Example 8; assay type: cell-based
Description: as §1, §2

HT-29 (colon carcinoma) = assay: Cytotoxicity (sulphorhodamine B), cancer cell line, Table 1B; assay type: cell-based; settings: Homo sapiens, HT-29, 72 h
[14] = system: HL-60 (promyel carcinoma); assay: as above; assay type: cell-based; settings: Homo sapiens, HL-60, 72 h
[15] = system: OVCAR-3 (ovarian carcinoma); assay: as above; assay type: cell-based; settings: Homo sapiens, OVCAR-3, 72 h
[16] = system: PC-3 (prostate carcinoma); assay: as above; assay type: cell-based; settings: Homo sapiens, 72 h
[17] = system: BALB/c 3T3 (normal mouse embryo); assay: Cytotoxicity (sulphorhodamine B), normal cell line, Table 1B; assay type: cell-based; settings: BALB/c3T3, 72 h
[18] = system: broad spectrum of cell lines; assay: Cytotoxicity against a broad spectrum of cell lines (overall); settings: three-day exposure; compared with taxol
Description: The protaxols synthesized in this study were tested against a broad spectrum of cell lines ranging from the multiple-drug resistant ovarian (OVCAR-3) to lung (H-322) and leukemia (MOLT-4) cells in order to assess cytotoxicity, cell-type selectivity, and duration of action.
The cytotoxicities were determined using the sulphorhodamine B assay method (Skehan, P. et al. J. Nat. Canc. Inst. 82, 1107 (1990)).

[19] = system: MOLT-4 (T-cell leukaemia); assay: Cytotoxicity (sulphorhodamine B), cancer cell line, Table 1B; assay type: cell-based; settings: Homo sapiens, MOLT-4, 72 h
L1210 (mouse leukaemia) = assay: as above; assay type: cell-based; settings: L1210, 72 h
Capan-1 (pancreatic) = assay: as above; assay type: cell-based; settings: Homo sapiens, CAPAN-1, 72 h
H322 (lung carcinoma) [20] = assay: as above; assay type: cell-based; settings: NCI-H322, 72 h
[21] = system: BT-549 (breast carcinoma); assay: as above; assay type: cell-based; settings: Homo sapiens, BT-549, 72 h
[22] = system: RPMI-7666 (normal human PBLs); assay: Cytotoxicity (sulphorhodamine B), normal cell line, Table 1B; assay type: cell-based; settings: 72 h
[23] = system: 786-0 (renal cell carcinoma); assay: Cytotoxicity (sulphorhodamine B), cancer cell line, Table 1B; assay type: cell-based; settings: Homo sapiens, 786-0, 72 h
NHDF (normal human skin) = assay: Cytotoxicity (sulphorhodamine B), normal cell line, Table 1B; assay type: cell-based; settings: 72 h
[24] = system: CHO (normal human mammary); assay: as above; assay type: cell-based; settings: Homo sapiens, 72 h
SIHA (cervix carcinoma) = assay: Cytotoxicity (sulphorhodamine B), cancer cell line, Table 1B; assay type: cell-based; settings: Homo sapiens, SiHa, 72 h
SK (melanoma) = assay: as above; assay type: cell-based; settings: 72 h
MCF-7 (breast carcinoma) [25] = assay: as above; assay type: cell-based; settings: Homo sapiens, MCF7, 72 h
[26] = system: UCLA-P-3 (lung carcinoma); assay: as above; assay type: cell-based; settings: Homo sapiens, UCLA P-3, 72 h
[27] = system: CHO (Chinese hamster ovary); assay: Cytotoxicity (sulphorhodamine B), normal cell line, Table 1B; assay type: cell-based; settings: Cricetulus griseus, 72 h

CC(=O)O[C@H]1C(=O)[C@@]2(C)[C@H]([C@H](OC(=O)c3ccccc3)[C@]3(O)C[C@H](OC(=O)[C@H](OC(=O)COCC(=O)O)[C@@H](NC(=O)c4ccccc4)c4ccccc4)C(C)=C1C3(C)C)[C@]1(OC(C)=O)CO[C@@H]1C[C@@H]2O [Compound 3]
IC50 ([1]; 72 h): 1120 µM | IC50 ([2]; 72 h): 103 µM | IC50 ([3]; HT-29, 72 h): 0.01 µM | IC50 ([4]; BT-549, 72 h): 51.4 µM | IC50 (SK-MEL-28 (melanoma); SK-MEL-28, 72 h): 100 µM | IC50 ([5]; HLF1, 72 h): 59.5 µM | IC50 ([6]; CAPAN-1, 72 h): 0.098 µM | IC50 ([7]; OVCAR-3, 72 h): 0.098 µM | IC50 (H322 (lung carcinoma) [8]; NCI-H322, 72 h): 205 µM | IC50 (MCF-7 (breast carcinoma) [9]; MCF7, 72 h): 357 µM | IC50 ([10]; 72 h): 65.1 µM | IC50 ([11]; 72 h): 101 µM | IC50 ([12]; 786-0, 72 h): 0.153 µM | IC50 ([13]; W138, 72 h): 51.9 µM

CC(=O)O[C@H]1C(=O)[C@@]2(C)[C@H]([C@H](OC(=O)c3ccccc3)[C@]3(O)C[C@H](OC(=O)[C@H](OC(=O)CSCC(=O)O)[C@@H](NC(=O)c4ccccc4)c4ccccc4)C(C)=C1C3(C)C)[C@]1(OC(C)=O)CO[C@@H]1C[C@@H]2O [Compound 4, 2'-thiodiglycolic taxol]
IC50 ([1]; 72 h): 50 µM | IC50 ([2]; 72 h): 50 µM | IC50 ([3]; HT-29, 72 h): 0.19 µM | IC50 ([4]; BT-549, 72 h): 16 µM | IC50 (SK-MEL-28 (melanoma); SK-MEL-28, 72 h): 100 µM | IC50 ([5]; HLF1, 72 h): 3.1 µM | IC50 ([6]; CAPAN-1, 72 h): 0.19 µM | IC50 ([7]; OVCAR-3, 72 h): 0.39 µM | IC50 (H322 (lung carcinoma) [8]; NCI-H322, 72 h): 3.1 µM | IC50 (MCF-7 (breast carcinoma) [9]; MCF7, 72 h): 100 µM | IC50 ([10]; 72 h): 100 µM | IC50 ([11]; 72 h): 50 µM | IC50 ([12]; 786-0, 72 h): 6.3 µM | IC50 ([13]; W138, 72 h): 13 µM

COC(=O)CS(=O)(=O)CC(=O)O[C@@H](C(=O)O[C@H]1C[C@@]2(O)[C@@H](OC(=O)c3ccccc3)[C@@H]3[C@]4(OC(C)=O)CO[C@@H]4C[C@H](O)[C@@]3(C)C(=O)[C@H](OC(C)=O)C(=C1C)C2(C)C)[C@@H](NC(=O)c1ccccc1)c1ccccc1 [Compound 6]
IC50 (HT-29 (colon carcinoma)): 0.1 µM | IC50 [14]: 0.1 µM | IC50 [15]: 1 µM | IC50 [16]: 1 µM | IC50 [17]: 10 µM | cytotoxicity (in words) [18]: lower cytotoxicities | IC50 [19]: 0.1 µM | IC50 (L1210 (mouse leukaemia)): 10 µM | IC50 (Capan-1 (pancreatic)): 0.1 µM | IC50 (H322 (lung carcinoma) [20]): 0.1 µM | IC50 [21]: 0.001 µM | IC50 [22]: 100 µM | IC50 [23]: 10 µM | IC50 (NHDF (normal human skin)): 1 µM | IC50 [24]: 100 µM | IC50 (SIHA (cervix carcinoma)): 100 µM | IC50 (SK (melanoma)): 10 µM | IC50 (MCF-7 (breast carcinoma) [25]): 10 µM | IC50 [26]: < 0.001 µM | IC50 [27]: 100 µM

CC(=O)O[C@H]1C(=O)[C@@]2(C)[C@H]([C@H](OC(=O)c3ccccc3)[C@]3(O)C[C@H](OC(=O)[C@H](OC(=O)OCCS(=O)(=O)c4ccc([N+](=O)[O-])cc4)[C@@H](NC(=O)c4ccccc4)c4ccccc4)C(C)=C1C3(C)C)[C@]1(OC(C)=O)CO[C@@H]1C[C@@H]2O [Compound 9]
IC50 (HT-29 (colon carcinoma)): 0.1 µM | IC50 [14]: 0.1 µM | IC50 [15]: 1 µM | IC50 [16]: 1 µM | IC50 [17]: 10 µM | cytotoxicity (in words) [18]: lower cytotoxicities | IC50 [19]: 0.001 µM | IC50 (L1210 (mouse leukaemia)): 1 µM | IC50 (Capan-1 (pancreatic)): 1 µM | IC50 (H322 (lung carcinoma) [20]): 1 µM | IC50 [21]: 0.1 µM | IC50 [22]: 100 µM | IC50 [23]: 1 µM | IC50 (NHDF (normal human skin)): 1 µM | IC50 [24]: 100 µM | IC50 (SIHA (cervix carcinoma)): 10 µM | IC50 (SK (melanoma)): 10 µM | IC50 (MCF-7 (breast carcinoma) [25]): 10 µM | IC50 [26]: < 0.001 µM | IC50 [27]: 100 µM

CC(=O)O[C@H]1C(=O)[C@@]2(C)[C@H]([C@H](OC(=O)c3ccccc3)[C@]3(O)C[C@H](OC(=O)[C@H](OC(=O)OCCS(=O)(=O)c4ccc(N)cc4)[C@@H](NC(=O)c4ccccc4)c4ccccc4)C(C)=C1C3(C)C)[C@]1(OC(C)=O)CO[C@@H]1C[C@@H]2O [Compound 10]
IC50 (HT-29 (colon carcinoma)): < 0.001 µM | IC50 [14]: < 0.001 µM | IC50 [15]: < 0.001 µM | IC50 [16]: 1 µM | IC50 [17]: 10 µM | IC50 [19]: < 0.001 µM | IC50 (L1210 (mouse leukaemia)): 10 µM | IC50 (Capan-1 (pancreatic)): < 0.001 µM | IC50 (H322 (lung carcinoma) [20]): 0.01 µM | IC50 [21]: 0.1 µM | IC50 [22]: 100 µM | IC50 [23]: 1 µM | IC50 (NHDF (normal human skin)): 1 µM | IC50 [24]: 100 µM | IC50 (SIHA (cervix carcinoma)): 10 µM | IC50 (SK (melanoma)): 10 µM | IC50 (MCF-7 (breast carcinoma) [25]): 10 µM | IC50 [26]: < 0.001 µM | IC50 [27]: 100 µM

CC(=O)O[C@H]1C(=O)[C@@]2(C)[C@H]([C@H](OC(=O)c3ccccc3)[C@]3(O)C[C@H](OC(=O)[C@H](OC(=O)C[S+]([O-])CC(=O)O)[C@@H](NC(=O)c4ccccc4)c4ccccc4)C(C)=C1C3(C)C)[C@]1(OC(C)=O)CO[C@@H]1C[C@@H]2O (some centres unmarked) [Example 3a]
IC50 ([1]; S1HA, 72 hours, read-out: IC50): 25 µM | IC50 ([2]; 72 hours, read-out: IC50): 50 µM | IC50 ([3]; HT-29, 72 hours, read-out: IC50): 0.098 µM | IC50 ([4]; BT-549, 72 hours, read-out: IC50): 0.098 µM | IC50 (SK-MEL-28 (melanoma); SK-MEL-28, 72 hours, read-out: IC50): 100 µM | IC50 ([5]; HLF1, HLF-1, 72 hours, read-out: IC50): 25 µM | IC50 ([6]; Capan-1, 72 hours, read-out: IC50): 0.87 µM | IC50 ([7]; OVCAR-3, 72 hours, read-out: IC50): 0.098 µM | IC50 (H322 (lung carcinoma) [8]; NCI-H322, H322, 72 hours, read-out: IC50): 8.3 µM | IC50 (MCF-7 (breast carcinoma) [9]; MCF7, MCF-7, 72 hours, read-out: IC50): 39.2 µM | IC50 ([10]; PC-3, 72 hours, read-out: IC50): 50 µM | IC50 ([11]; CHO, 72 hours, read-out: IC50): 100 µM | IC50 ([12]; 786-0, 72 hours, read-out: IC50): 0.15 µM | IC50 ([13]; W138, W1-38, 72 hours, read-out: IC50): 25 µM
